# In paper PMC4728661, “Cancer Prevention and Health Benefices of Traditionally Consumed Borago officinalis Plants” (Nutrients, 2016):
# “And” between values parts separate entries of the source, which are not always exact repeats. Equal values may be shown once. Marks after values point to notes of the source that are not given here.
# Experiments:
# D. melanogaster [1] = test: Toxicity: survival of Drosophila larvae to emerged adults, simple and combined (H2O2) treatments; assay type: in vivo, Drosophila melanogaster
# Description: Optimal fertile flies were anesthetized under CO2 narcotisation for cross selection and then placed in new vials for fertilization. After that, hybrid eggs from crossing were collected over an 8 h period and emerged larvae (72 ± 4 h later) were cleaned up for a few seconds in sterile distilled water to remove feeding medium rests. […] Bioactive compound concentrations were chosen on the basis of their known content in B. officinalis species. […] Larvae were fed on these media until pupation (about 48 h). After emergence, resulting adult flies were sacrificed under CO2 narcotisation and stored in a 70% ethanol solution in sterile water. […] The determination of Toxicity (T) of treatments in D. melanogaster was performed following this formula [39]: T = (N° of emerging individuals in treatment/N° of emerging individuals in the negative control) × 100(1) Differences in D. melanogaster survival between treatments at each concentration with respect to negative control were analyzed with a Chi-square test. This procedure was also performed for the analysis of each simple treatment with their correspondent combined treatment.
# D. melanogaster [2] = test: Genotoxicity: Somatic Mutation and Recombination Test (SMART), wing spot test, simple treatments; assay type: in vivo, Drosophila melanogaster; details: for Genotoxicity in the Drosophila wing spot test (in words): simple treatments, all concentrations; for Diagnosis, Small Single Spots 1–2 Cells m = 2 / Diagnosis, Total Spots m = 2 / Mutation rate, Large Single Spots >2 Cells m = 5 / Mutation rate, Small Single Spots 1–2 Cells m = 2 / Mutation rate, Total Spots m = 2 / Mutation rate, Twin Spots m = 5 / Diagnosis, Twin Spots m = 5 / Diagnosis, Large Single Spots >2 Cells m = 5: simple; as to Diagnosis, Large Single Spots >2 Cells m = 5: key: + (positive); − (negative); as to Diagnosis, Small Single Spots 1–2 Cells m = 2: key: + (positive); − (negative); as to Diagnosis, Total Spots m = 2: key: + (positive); − (negative); as to Diagnosis, Twin Spots m = 5: key: + (positive); − (negative)
# Description: The D. melanogaster system was selected for the determination of the safety of B. officinalis consumption as a well-recognized method to analyze vegetable complex mixtures using SMART [31, 32]. This test was used in order to evaluate the genotoxic and antigenotoxic activity of B. officinalis leaves and petioles as well as their selected bioactive compounds [33]. This activity was measured by direct visualization of the occurrence of recessive mutations in the wing hairs of two different D. melanogaster strains. Flies from experiments carried these visible wing genetic markers: the flare (flr) strain flr^3/ln (3LR) TM3, Bd^s and the multiple wing-hair (mwh) strain mwh/mwh. The marker flare (flr^3, 3_38.3) produces individual malformed hairs and the marker multiple wing hairs (mwh, 3_0.3) produces multiple hairs per cell. Larvae used in treatments come from two types of crosses: the standard cross with flr^3/TM3, Bd^S females mated to mwh/mwh males and the reciprocal cross.
# Optimal fertile flies were anesthetized under CO2 narcotisation for cross selection and then placed in new vials for fertilization. After that, hybrid eggs from crossing were collected over an 8 h period and emerged larvae (72 ± 4 h later) were cleaned up for a few seconds in sterile distilled water to remove feeding medium rests. For genotoxicity analysis (simple treatments), groups of 100 larvae were transferred into vials containing 0.85 g of Drosophila Instant Medium (Formula 4–24, Carolina Biological Supply, Burlington, NC, USA) wetted with 4 mL of a mixture of distilled water and increasing concentrations of samples: B. officinalis BF and WF (1.25, 2.5, and 5 mg·mL^−1), RO (0.35, 0.7, 1.39 and 2.78 mM), SY (0.16, 0.32, 0.63 and 1.26 mM), SI (0.15, 0.29, 0.58 and 1.16 mM) and the mixture of these three bioactive compounds at each concentration assayed individually. Bioactive compound concentrations were chosen on the basis of their known content in B. officinalis species. […] Larvae were fed on these media until pupation (about 48 h). After emergence, resulting adult flies were sacrificed under CO2 narcotisation and stored in a 70% ethanol solution in sterile water. Emerged adults were counted for toxicity evaluation and transheterozygous wings (mwh flr^+/mwh^+ flr^3) were mounted on microscope slides and wing hair mutations (spots) scored, using a photonic microscope (Nikon) at 400× magnification for genotoxicity and antigenotoxicity evaluation.
# For the evaluation of genotoxic effects, the frequencies of spots per fly of each treated series were compared to the concurrent negative control for each class of mutational clone as well as between simple and combined treatments for the same concentration comparisons. […] A multiple-decision procedure was used to categorize results as positive, inconclusive or negative. Inconclusive and positive results were evaluated by the non-parametric U test of Mann, Whitney and Wilcoxon. The inhibition percentage (IP) of genotoxicity was calculated from the total frequencies of spots per wing, following this formula [42]: IP = (genotoxin alone − sample + genotoxin) × 100/(genotoxin alone)(2)
# HL-60 cells = test: Cytotoxicity: HL-60 growth/viability, Trypan Blue dye exclusion; assay type: cell-based, human; details: 72 h
# Description: The human acute promyelocytic leukemia cell line HL-60 was routinely grown in suspension in RPMI medium (Invitrogen, Madrid, Spain) containing glutamine ([…], Sigma-Aldrich, St. Louis, MO, USA), antibiotics (100IU penicillin mL^−1 and 100 μg streptomycin mL^−1, Sigma-Aldrich) and supplemented with 10% heat-inactivated foetal bovine serum (Linus, Cultek, Madrid, Spain) and placed in an incubator (Shel Lab, Cornelious, OR, USA) with a 5% CO2 humidified atmosphere at 37 °C [36]. HL-60 cells were subcultured every 2–3 days to maintain logarithmic growth and they were allowed to grow for 48 h before use. Cultures were plated at a density of 12.5 × 10^4 cells mL^−1 in 40 mL culture flasks (25 cm^2). Cytotoxic activity was measured as growing inhibition or decreased viability on HL-60 cells following a previous protocol modified by us. […] Cells were counted after 72 h treatment. Tested concentrations were calculated according to those used for in vivo assays to equal the range of tested doses. Untreated cultures were used as negative control. Cell viability was determined by the Trypan Blue dye exclusion test. Cells were stained with an equal volume of Trypan Blue commercial solution (Sigma-Aldrich) and counted using a hemocytometer at room temperature under a light inverted microscope (AE30/31, Motic, Barcelona, Spain). Cytotoxic effect evaluation was determined after each culture incubation period, establishing a growth curve and determining IC50 values by regression analysis of the curves. Viability estimated regressions of leukemia cells are presented as a survival percentage with respect to controls at 72 h growth and plotted as mean viability ± standard error of at least three independent replicas for each treatment and concentration.
smiles,measurement,setting,value
"O=C(/C=C/c1ccc(O)c(O)c1)O[C@H](Cc1ccc(O)c(O)c1)C(=O)O [RO, rosmarinic acid]",Survival average in combined treatments,"D. melanogaster [1]; average of the four concentrations, combined with 0.12 M H2O2",41.28
same,Survival,"D. melanogaster [1]; combined with 0.12 M H2O2, 0.35 mM RO",49.56 * %
same,Survival,"D. melanogaster [1]; combined with 0.12 M H2O2, 0.7 mM RO","31.11 *^,‡ %"
same,Survival,"D. melanogaster [1]; combined with 0.12 M H2O2, 1.39 mM RO","45.56 *^,‡ %"
same,Survival,"D. melanogaster [1]; combined with 0.12 M H2O2, 2.78 mM RO","38.89 *^,‡ %"
same,Survival,"D. melanogaster [1]; simple treatment, 0.35 mM RO",48.44 * %
same,Survival,"D. melanogaster [1]; simple treatment, 0.7 mM RO",22.22 * %
same,Survival,"D. melanogaster [1]; simple treatment, 1.39 mM RO",33.33 * %
same,Survival,"D. melanogaster [1]; simple treatment, 2.78 mM RO",21.33% and 21.33 * %
same,Genotoxicity in the Drosophila wing spot test (in words),D. melanogaster [2],not mutagenic
same,"Diagnosis, Small Single Spots 1–2 Cells m = 2",D. melanogaster [2]; 0.35 mM RO,−
same,"Diagnosis, Total Spots m = 2",D. melanogaster [2]; 0.35 mM RO,−
same,"Mutation rate, Large Single Spots >2 Cells m = 5",D. melanogaster [2]; 0.35 mM RO,0 spots/wing
same,"Mutation rate, Small Single Spots 1–2 Cells m = 2",D. melanogaster [2]; 0.35 mM RO,0.38 (6) spots/wing
same,"Mutation rate, Total Spots m = 2",D. melanogaster [2]; 0.35 mM RO,0.38 (6) spots/wing
same,"Mutation rate, Twin Spots m = 5",D. melanogaster [2]; 0.35 mM RO,0 spots/wing
same,"Diagnosis, Small Single Spots 1–2 Cells m = 2",D. melanogaster [2]; 0.7 mM RO,−
same,"Diagnosis, Total Spots m = 2",D. melanogaster [2]; 0.7 mM RO,−
same,"Diagnosis, Twin Spots m = 5",D. melanogaster [2]; 0.7 mM RO,−
same,"Mutation rate, Large Single Spots >2 Cells m = 5",D. melanogaster [2]; 0.7 mM RO,0 spots/wing
same,"Mutation rate, Small Single Spots 1–2 Cells m = 2",D. melanogaster [2]; 0.7 mM RO,0.21 (7) spots/wing
same,"Mutation rate, Total Spots m = 2",D. melanogaster [2]; 0.7 mM RO,0.26 (9) spots/wing
same,"Mutation rate, Twin Spots m = 5",D. melanogaster [2]; 0.7 mM RO,0.06 (2) spots/wing
same,"Diagnosis, Small Single Spots 1–2 Cells m = 2",D. melanogaster [2]; 1.39 mM RO,−
same,"Diagnosis, Total Spots m = 2",D. melanogaster [2]; 1.39 mM RO,−
same,"Diagnosis, Twin Spots m = 5",D. melanogaster [2]; 1.39 mM RO,−
same,"Mutation rate, Large Single Spots >2 Cells m = 5",D. melanogaster [2]; 1.39 mM RO,0 spots/wing
same,"Mutation rate, Small Single Spots 1–2 Cells m = 2",D. melanogaster [2]; 1.39 mM RO,0.18 (4) spots/wing
same,"Mutation rate, Total Spots m = 2",D. melanogaster [2]; 1.39 mM RO,0.23 (5) spots/wing
same,"Mutation rate, Twin Spots m = 5",D. melanogaster [2]; 1.39 mM RO,0.05 (1) spots/wing
same,"Diagnosis, Large Single Spots >2 Cells m = 5",D. melanogaster [2]; 2.78 mM RO,−
same,"Diagnosis, Small Single Spots 1–2 Cells m = 2",D. melanogaster [2]; 2.78 mM RO,−
same,"Diagnosis, Total Spots m = 2",D. melanogaster [2]; 2.78 mM RO,−
same,"Mutation rate, Large Single Spots >2 Cells m = 5",D. melanogaster [2]; 2.78 mM RO,0.05 (2) spots/wing
same,"Mutation rate, Small Single Spots 1–2 Cells m = 2",D. melanogaster [2]; 2.78 mM RO,0.16 (6) spots/wing
same,"Mutation rate, Total Spots m = 2",D. melanogaster [2]; 2.78 mM RO,0.21 (8) spots/wing
same,"Mutation rate, Twin Spots m = 5",D. melanogaster [2]; 2.78 mM RO,0 spots/wing
same,Viable HL-60 cells,HL-60 cells; RO (alone or in the mixture) at concentrations over 0.55 mM,no viable cells could be detected
"COc1cc(/C=C/C(=O)O)cc(OC)c1O [SI, sinapic acid]",Survival,"D. melanogaster [1]; combined with 0.12 M H2O2, 0.15 mM SI","64 *^,‡ %"
same,Survival,"D. melanogaster [1]; combined with 0.12 M H2O2, 0.29 mM SI",58.89 * %
same,Survival,"D. melanogaster [1]; combined with 0.12 M H2O2, 0.58 mM SI","39.78 *^,‡ %"
same,Survival,"D. melanogaster [1]; combined with 0.12 M H2O2, 1.16 mM SI","43.56 *^,‡ %"
same,Survival,"D. melanogaster [1]; simple treatment, 0.15 mM SI",78.22 * %
same,Survival,"D. melanogaster [1]; simple treatment, 0.29 mM SI",60.22 * %
same,Survival,"D. melanogaster [1]; simple treatment, 0.58 mM SI",69.33 * %
same,Survival,"D. melanogaster [1]; simple treatment, 1.16 mM SI",55.11 * %
same,Genotoxicity in the Drosophila wing spot test (in words),D. melanogaster [2],not mutagenic
same,"Diagnosis, Large Single Spots >2 Cells m = 5",D. melanogaster [2]; 0.15 mM SI,−
same,"Diagnosis, Small Single Spots 1–2 Cells m = 2",D. melanogaster [2]; 0.15 mM SI,−
same,"Diagnosis, Total Spots m = 2",D. melanogaster [2]; 0.15 mM SI,−
same,"Diagnosis, Twin Spots m = 5",D. melanogaster [2]; 0.15 mM SI,−
same,"Mutation rate, Large Single Spots >2 Cells m = 5",D. melanogaster [2]; 0.15 mM SI,0.04 (1) spots/wing
same,"Mutation rate, Small Single Spots 1–2 Cells m = 2",D. melanogaster [2]; 0.15 mM SI,0.38 (9) spots/wing
same,"Mutation rate, Total Spots m = 2",D. melanogaster [2]; 0.15 mM SI,0.46 (11) spots/wing
same,"Mutation rate, Twin Spots m = 5",D. melanogaster [2]; 0.15 mM SI,0.04 (1) spots/wing
same,"Diagnosis, Large Single Spots >2 Cells m = 5",D. melanogaster [2]; 0.29 mM SI,−
same,"Diagnosis, Small Single Spots 1–2 Cells m = 2",D. melanogaster [2]; 0.29 mM SI,−
same,"Diagnosis, Total Spots m = 2",D. melanogaster [2]; 0.29 mM SI,−
same,"Mutation rate, Large Single Spots >2 Cells m = 5",D. melanogaster [2]; 0.29 mM SI,0.10 (3) spots/wing
same,"Mutation rate, Small Single Spots 1–2 Cells m = 2",D. melanogaster [2]; 0.29 mM SI,0.39 (12) spots/wing
same,"Mutation rate, Total Spots m = 2",D. melanogaster [2]; 0.29 mM SI,0.48 (15) spots/wing
same,"Mutation rate, Twin Spots m = 5",D. melanogaster [2]; 0.29 mM SI,0 spots/wing
same,"Diagnosis, Large Single Spots >2 Cells m = 5",D. melanogaster [2]; 0.58 mM SI,−
same,"Diagnosis, Small Single Spots 1–2 Cells m = 2",D. melanogaster [2]; 0.58 mM SI,−
same,"Diagnosis, Total Spots m = 2",D. melanogaster [2]; 0.58 mM SI,−
same,"Mutation rate, Large Single Spots >2 Cells m = 5",D. melanogaster [2]; 0.58 mM SI,0.07 (2) spots/wing
same,"Mutation rate, Small Single Spots 1–2 Cells m = 2",D. melanogaster [2]; 0.58 mM SI,0.33 (10) spots/wing
same,"Mutation rate, Total Spots m = 2",D. melanogaster [2]; 0.58 mM SI,0.40 (12) spots/wing
same,"Mutation rate, Twin Spots m = 5",D. melanogaster [2]; 0.58 mM SI,0 spots/wing
same,"Diagnosis, Large Single Spots >2 Cells m = 5",D. melanogaster [2]; 1.16 mM SI,−
same,"Diagnosis, Small Single Spots 1–2 Cells m = 2",D. melanogaster [2]; 1.16 mM SI,−
same,"Diagnosis, Total Spots m = 2",D. melanogaster [2]; 1.16 mM SI,−
same,"Diagnosis, Twin Spots m = 5",D. melanogaster [2]; 1.16 mM SI,−
same,"Mutation rate, Large Single Spots >2 Cells m = 5",D. melanogaster [2]; 1.16 mM SI,0.03 (1) spots/wing
same,"Mutation rate, Small Single Spots 1–2 Cells m = 2",D. melanogaster [2]; 1.16 mM SI,0.23 (9) spots/wing
same,"Mutation rate, Total Spots m = 2",D. melanogaster [2]; 1.16 mM SI,0.28 (11) spots/wing
same,"Mutation rate, Twin Spots m = 5",D. melanogaster [2]; 1.16 mM SI,0.03 (1) spots/wing
same,Effect on HL-60 growth,HL-60 cells; 0.03–1 mM,did not affect HL-60 growth
